Laboratory results published in PubChem BioAssay (NCI).
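All cell lines were grown in 96-well plates and treated with compound for 48 hours. At the GI50, growth is halved. TGI denotes the concentration required for complete inhibition of growth.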

Key:
Test in all cases: NCI tumour cell line growth inhibition, 48 h
[1] = test system: HOP-62 NSCLC
[2] = test system: HL-60(TB) leukemia
[3] = test system: HT29 colon
[4] = test system: M14 melanoma
[5] = test system: RXF 393 renal
[6] = test system: IGROV1 ovarian
[7] = test system: SW-620 colon
[8] = test system: SNB-19 CNS
[9] = test system: NCI/ADR-RES ovarian
[10] = test system: U251 CNS

Row | Structure (SMILES) | GI50 [1] | TGI [1] | GI50 [2] | TGI [2] | GI50 [3] | TGI [3] | GI50 [4] | TGI [4] | GI50 [5] | TGI [5] | GI50 [6] | TGI [6] | GI50 [7] | TGI [7] | GI50 [8] | TGI [8] | GI50 [9] | TGI [9] | GI50 [10] | TGI [10]
1 | COc1ccc(C2=NN(C(=O)c3cc(OC)c(OC)c(OC)c3)C(c3ccc(C#N)cc3)C2)cc1OC (stereo not given) | 1.53 µM | 36.9 µM | 1.85 µM | 6.01 µM | 2.42 µM | > 32.1 µM | 1.8 µM | 10.4 µM | 0.541 µM | 4.69 µM | 1.18 µM | 18.9 µM | 1.26 µM | > 100 µM | 3.02 µM | > 68.2 µM | 0.603 µM | 11.1 µM | 1.18 µM | > 34.6 µM
2 | COc1cc(OC)cc(-c2ccc(-c3ccc(C(=N)N)o3)o2)c1 | 5.65 µM | 19.1 µM | 1.9 µM | 4.24 µM | 2.77 µM | 9.04 µM | 2.07 µM | 4.36 µM | 1.93 µM | 5.24 µM | 2.97 µM | 10.4 µM | 1.88 µM | 4.06 µM | 3.02 µM | 10.6 µM | 8.26 µM | 22.4 µM | 2.45 µM | 5.91 µM
3 | O=C(NCCOCCOCCNc1cccc2c1C(=O)N(C1CCCNC1=O)C2=O)c1cc2c(o1)C(=O)c1ccccc1C2=O (stereo not given) | 1.91 µM | 3.37 µM | 2.38 µM | 6.78 µM | 2.93 µM | 8.05 µM | 0.772 µM | 2.18 µM | 1.8 µM | 3.99 µM | 1.99 µM | 5.33 µM | 2.35 µM | 7.52 µM | 2.42 µM | 9.84 µM | 10.3 µM | 32 µM | 1.9 µM | 3.9 µM
4 | O=C(c1ccco1)c1nc2ccc(C(F)(F)F)cc2[n+]([O-])c1C(F)(F)F | 33.6 µM | > 100 µM | 95.2 µM | > 100 µM | 29.9 µM | > 100 µM | > 100 µM | > 100 µM | 22.2 µM | 80 µM | 35.6 µM | > 100 µM | > 100 µM | > 100 µM | 36.4 µM | > 100 µM | > 100 µM | > 100 µM | 52.6 µM | > 100 µM
